Test results from US20030198617A1, “Pharmaceutical tryptophan containing dipeptide compositions and methods of use thereof” (priority 1993, published 2003).
Read-outs that look alike come from different tables or passages of the source. Marks after values point to notes of the source that are not given here.

Assays:
[1] = Cancer patients after radiation and chemo-therapy; format: in vivo, human; conditions: IM862 100 μg daily 10 days, 246 patients
Text: If it vas determined necessary based on immunological indices, the treatment regimen was repeated in 4-6 months.

[2] = Prolonged IM862 therapy trials in irradiated patients, blood parameters; format: in vivo, human
Text: The group of patients described in Example 42 were further treated for a period of […] and tested again subsequent to the first stage of therapy (after 4 months) and after the second stage of therapy (6 months).

[3] = Patients with fever, toxic symptoms, jaundice (Example 101); format: in vivo, human; conditions: IM862 IM or intranasally 5-10 days, 39 patients
Text: A total of 39 patients were studied with 27 patient controls. […] Immunological indices were normalized.

T cells = test: Intracellular cAMP in T cells; format: cell-based
[4] = Chronic prostatitis, clinical result and immunological examination
Protocol: A clinical study of the preparation was conducted in 34 chronic prostatitis patients having active inflammation. Patients were aged 22 to 45 years old. Diagnosis was established by patient complaints, a medical history, palpation of the prostate, and laboratory investigation methods (microscopic examination of prostate gland secretions, spermography, three-cup urinalysis).
A traditional treatment plan was followed simultaneously, using antibacterial preparations, uroantiseptics, physical procedures, prostate gland massage, and therapeutic exercise.
Measurement reliability of the obtained indices was evaluated with the use of variable statistics methods.
The persistent disappearance (over an observation period of 1-1.5 months) of painful sensations, leukocyturia, the lowering of the leukocyte count to normal levels in prostate gland secretions and ejaculate, and the overall improvement in the general state of the patient were all deemed to be a good result.
The normalization of all laboratory indices while complaints of pain persisted in the perineum, sacrum, anal region, scrotum, etc. was rated as a satisfactory result.
The second group was made up of patients with lowered initial indices, and the third had patients with elevated initial indices.

[5] = Infected patients with icterus (Example 95); format: in vivo, human; conditions: IM862 100 μg 5-10 days, 48 patients
Text: The hematological and immunological indices were normalized.

Staphylococci = test: Antibiotic-sensitivity of staphylococci from skin lesions (MIC, series cultivation); format: cell-based; conditions: after IM862 use (initially 10 of the 15)
Text: Staphylococci extracted from dermal lesions were initially sensitive to 10 of the 15 antibiotics being assayed (Table 25).

[6] = Immunity and non-specific resistance indices in breast cancer patients after radiotherapy; format: in vivo, human; conditions: after IM862 use
[7] = Radiation injury patients (Example 67); format: in vivo, human; conditions: IM862 100 μg 10 days, 263 patients
Text: A total of 263 patients and 18 control patients sustained exposure to radiation injury. […] A repeated course may be proscribed on the basis of immunological indices, and averages every 4 to 6 months. […] There was an arresting of asthenic syndrome, and an arresting of the somatic pathological exacerbations and reduction of opportunistic infections.

Candida albicans = Candida albicans intraperitoneal infection in guinea pigs; format: in vivo
Text: Two groups of guinea pigs were inoculated with Candida albicans by intraperitoneal injection. […] The other group was not treated.
Animals were sacrificed at day 5 and day 10. The peritoneal cavities were examined for signs of inflammation. These signs included number of infectious foci adherent to the omentum, exudate, fibrin deposition, quantitative fungal cultures, and the number of neutrophils, macrophages, and lymphocytes infiltrating the peritoneum.

[8] = test system: Mycobacterium tuberculosis
[9] = test system: methicillin-resistant Staphylococcal aureus
Protocol: Animals were inoculated intraperitoneally with 10×LD of Staphylococcal aureus suspended in brain-heart infusion broth containing 5 percent mucin. The antibiotic was administered s.c., i.p., or p.o., one hour following bacterial inoculation and deaths occurring during the subsequent three days are recorded.
Two control experiments were conducted. […] The number of survivors at 72 hours was determined. […] The number of survivors at 72 hours was again recorded.
Test mice were divided into 3 groups.

[10] = after the 1st stage of IM862 use
[11] = after the 2nd state of IM862 use
[12] = 34 chronic prostatitis patients
[13] = after treatment 100 μg i.m. for 5 days
[14] = elevated in 1 patient, after treatment
[15] = initial level lowered n = 14, after treatment
[16] = normal in 34 patients, after treatment
[17] = following two months of treatment, with chemotherapy
[18] = Group 2: IM862 0.01 mg/kg 3 days before inoculation, ampicillin control (0), 5 test animals, 72 hours
[19] = Group 3: IM862 0.01 mg/kg 3 days + ampicillin 100 mg/kg 1 hr, 5 test animals, 72 hours
[20] = Group 4: IM862 0.01 mg/kg 3 days + ampicillin 10 mg/kg 1 hr, 5 test animals, 72 hours
[21] = Group 5: IM862 0.01 mg/kg 3 days + ampicillin 1 mg/kg 1 hr, 5 test animals, 72 hours
[22] = Group 6: IM862 0.001 mg/kg 3 days + ampicillin 100 mg/kg 1 hr, 5 test animals, 72 hours
[23] = Group 7: IM862 0.001 mg/kg 3 days + ampicillin 10 mg/kg 1 hr, 5 test animals, 72 hours
[24] = Group 8: IM862 0.001 mg/kg 3 days + ampicillin 1 mg/kg 1 hr, 5 test animals, 72 hours

Glu-Trp [IM862]
clinical effect [1]: normalization of immunological indices | CD2-DR+, % [2, 10]: 22.3 ± 0.5% | CD2-DR+, abs [2, 10]: 0.34 ± 0.05* 10^9/l | CD3, % [2, 10]: 35 ± 4 % | CD3, abs [2, 10]: 0.49 ± 0.06* 10^9/l | CD4, % [2, 10]: 19.5 ± 1.7 % | CD4, abs [2, 10]: 0.28 ± 0.03* 10^9/l | CD8, % [2, 10]: 15.4 ± 2.3% | CD8, abs [2, 10]: 0.23 ± 0.03 10^9/l | CD19, % [2, 10]: 15.0 ± 2.8% | CD19, abs [2, 10]: 0.21 ± 0.06 10^9/l | Leukocytes, abs [2, 10]: 4.7 ± 0.2* 10^9/l | Lymphocytes, abs [2, 10]: 1.5 ± 0.4 10^9/l | CD2-DR+, % [2, 11]: 29 ± 3 % | CD2-DR+, abs [2, 11]: 0.56 ± 0.08* 10^9/l | CD3, % [2, 11]: 46 ± 3 % | CD3, abs [2, 11]: 0.89 ± 0.11* 10^9/l | CD4, % [2, 11]: 24.1 ± 1.5 % | CD4, abs [2, 11]: 0.45 ± 0.04* 10^9/l | CD8, % [2, 11]: 22.3 ± 2.2 % | CD8, abs [2, 11]: 0.40 ± 0.05* 10^9/l | CD19, % [2, 11]: 21.1 ± 2.1 % | CD19, abs [2, 11]: 0.39 ± 0.06* 10^9/l | Leukocytes, abs [2, 11]: 5.5 ± 0.3* 10^9/l | Lymphocytes, abs [2, 11]: 1.9 ± 0.5* 10^9/l | clinical effect [3]: reduction of fever | intracellular cAMP concentrations (T cells): an increase of intracellular cAMP concentrations is observed | good result, share of patients [4, 12]: 76.5% | satisfactory result, number of patients [4, 12]: 8 patients | good result, number of patients ([4]; 34 chronic prostatitis patients, IM862 with traditional treatment): 26 patients | elevated and lowered immune indices upon completion of treatment ([4]; IM862 use): a normalization was observed in all the elevated and lowered indices | B-lymphocytes % [4, 13]: 27.24 ± 1.44% | B-lymphocytes Abs. quantity ×10^9 [4, 13]: 0.54 ± 0.10 ×10^9 | Complement units [4, 13]: 29.43 ± 0.53 units | IgA [4, 13]: 2.20 ± 0.12 g/L | IgG [4, 13]: 12.52 ± 0.63 g/L | Imm. complexes units [4, 13]: 0.080 ± 0.004 units | Phagocytosis % [4, 13]: 39.41 ± 3.51% | T-lymphocytes % [4, 13]: 44.44 ± 2.34% | T-lymphocytes Abs. quantity ×10^9 [4, 13]: 0.88 ± 0.07 ×10^9 | IgG [4, 14]: 14.71 ± 1.42 g/L | IgM [4, 14]: 3.44 g/L | T-lymphocytes % ([4]; initial level elevated n = 2, after treatment): 40.0 ± 15.5% | Complement units ([4]; initial level elevated n = 7, after treatment): 30.7 ± 0.89 units | B-lymphocytes % ([4]; initial level elevated n = 8, after treatment): 24.8 ± 2.91^x % | Imm. complexes units ([4]; initial level elevated n = 19, after treatment): 0.08 ± 0.006^x units | Phagocytosis % ([4]; initial level elevated n = 26, after treatment): 37.7 ± 3.94% | Phagocytosis % ([4]; initial level lowered n = 5, after treatment): 36.6 ± 8.54^x % | Imm. complexes units ([4]; initial level lowered n = 8, after treatment): 0.07 ± 0.011 units | B-lymphocytes % ([4]; initial level lowered n = 10, after treatment): 26.0 ± 2.91^x % | Complement units [4, 15]: 34.2 ± 0.93^x units | T-lymphocytes % [4, 15]: 37.9 ± 2.24% | Phagocytosis % ([4]; initial level normal n = 3, after treatment): 58.6 ± 17.98% | Imm. complexes units ([4]; initial level normal n = 7, after treatment): 0.08 ± 0.006 units | Complement units ([4]; initial level normal n = 13, after treatment): 29.3 ± 0.88 units | B-lymphocytes % ([4]; initial level normal n = 16, after treatment): 29.2 ± 2.15% | T-lymphocytes % ([4]; initial level normal n = 18, after treatment): 50.0 ± 3.57% | IgG ([4]; lowered in 2 patients, after treatment): 7.80 ± 1.13 g/L | IgM ([4]; normal in 33 patients, after treatment): 2.08 ± 0.12 g/L | Ig (character image) l [4, 16]: 2.20 ± 0.12 | IgG [4, 16]: 12.51 g/L | clinical effect [5]: normalization of fever | number of the 15 tested antibiotics to which organisms from the infected foci were sensitive (Staphylococci): 14 | B-lymphocyte (Ig^+) (×10^9/l) [6]: 0.17 ± 0.02 ×10^9/l | C3-complement [6]: 0.68 ± 0.04 g/L | Cation [6]: 1.49 ± 0.12 | LMI with ConA, % [6]: 71 ± 5 % | Lymphocytes ×10^9/l [6]: 1.72 ± 0.21 ×10^9/l | OKT4^+/OKT8^+ [6]: 1.86 ± 0.17 | Phagocytic index [6]: 3.7 ± 0.2 | T-helpers (OKT4^+) [6]: 0.39 ± 0.04 | T-lymphocytes (×10^9/l) [6]: 0.92 ± 0.12 ×10^9/l | T-suppressors (OKT8^+) (×10^9/l) [6]: 0.21 ± 0.03 ×10^9/l | “Active” T-lymphocytes (×10^9/l) [6]: 0.52 ± 0.07 ×10^9/l | DSH to tuberculin (mm) ([6]; delayed-skin hypersensitivity): 8.7 ± 0.6 mm | SI to IM862 ([6]; sensitivity index): 1.27 ± 0.14 | clinical effect [7]: restoration of normal or near normal immune indices | inflammatory changes in the omentum (Candida albicans; after 5 days): did not principally differ between the groups | quantitative fungal cultures (Candida albicans; after 10 days): fewer fungi in the treated animals | inflammatory changes in the omentum (Candida albicans; after 10 days, 1 μg/kg per day i.p. for four days): less pronounced than in untreated animals | effect on immunological indices ([8]; after 2 months of observation): normalizing effect | positive changes in the lungs, cases out of 37 ([8]; after 4-6 months of in-hospital treatment): 35 cases | improvement, number of patients [8, 17]: 27 | significant improvement, number of patients [8, 17]: 9 | Survivors ([9]; 0.01 mg/kg IM862 3 days prior to bacterial inoculum, no antibiotic): Four of 5 animals survived | Percent ip Survivors [9, 18]: 80% | Survivors [9, 18]: 4 | Percent ip Survivors [9, 19]: 100% | Survivors [9, 19]: 5 | Percent ip Survivors [9, 20]: 100% | Survivors [9, 20]: 5 | Percent ip Survivors [9, 21]: 100% | Survivors [9, 21]: 5 | Percent ip Survivors [9, 22]: 100% | Survivors [9, 22]: 5 | Percent ip Survivors [9, 23]: 100% | Survivors [9, 23]: 5 | Percent ip Survivors [9, 24]: 100% | Survivors [9, 24]: 5
